Laboratory results: patent US8236779B2, “Antiviral nucleosides” (Roche Palo Alto LLC, priority 2010, dated 2012)

How the values were obtained:
HCV [1] = conditions: monotherapy; cited from earlier work
[2] = target: T1, HCV polymerase (NS5B570n-Con1) (Hepatitis C virus genotype 1b, UniProt Q9WMX2); assay: HCV NS5B RNA polymerase activity; assay type: biochemical, HCV Con1 strain
T1 construct: a 21 amino acid C-terminal deletion of full-length HCV polymerase derived from HCV Con1 strain; made in house; host or cells: E. coli BL21(DE3) pLysS, plasmid pET17b
Experimental: The enzymatic activity of HCV polymerase (NS5B570n-Con1) was measured as the incorporation of radiolabeled nucleotide monophosphates into acid insoluble RNA products. Unincorporated radiolabeled substrate was removed by filtration and scintillant was added to the washed and dried filter plate containing radiolabeled RNA product. The amount of RNA product generated by NS5B570n-Con1 at the end of the reaction was directly proportional to the amount of light emitted by the scintillant.
The HCV polymerase used in the enzymatic activity assay is a 21 amino acid C-terminal deletion of full-length HCV polymerase derived from HCV Con1 strain, genotype 1b (GenBank accession number AJ242654) (NS5B570n-Con1). The NS5B570n-Cont was sub-cloned downstream to the T7 promoter of the plasmid expression construct pET17b and transformed into E. coli strain BL21(DE3) pLysS for protein expression. A single colony was used to start an innoculum for a 10 L culture in LB media supplemented with 100 μg/mL ampicillin at 37° C. […]
The amount of light emitted from the scintillant was converted to counts per minute (CPM) on a Topcount® plate reader (Perkin-Elmer, Energy Range: Low, Efficiency Mode: Normal, Count Time: 1 min, Background Subtract: none, Cross talk reduction: Off).
Data was analyzed in Excel® (Microsoft®) and ActivityBase® (Idbs®). […] All data was expressed as a percentage of the positive control. […]

[3] = tested on: human hepatoma Huh7 cells; assay: Phosphorylation in Huh7 replicon cells; assay type: in vitro ADME
Excerpt: (FIG. 2) Since the cell specific phosphorylation takes place in the target tissue for HCV replication, there is the potential that 4′-AU will be selectively phosphorylated in the target tissue vis-à-vis other tissues thereby minimizing off target toxicity.

[4] = tested on: HCV replicon (human hepatoma Huh7 cells); conditions: cited from earlier work
[5] = tested on: primary human hepatocytes; assay: Uptake and phosphorylation in primary human hepatocytes; assay type: in vitro ADME
Experimental: The analysis of uptake and phosphorylation of the nucleoside analog 4AU in primary human hepatocytes was performed as previously published (Ma, H. et al. J. Biol. Chem. 2007, 282:29812-29820). Fresh human hepatocytes were plated and incubated with ^3H-labeled 4AU for different time spans. At the time of cell harvest the cell culture medium was aspirated, and the cells were washed once with cold phosphate-buffered saline. The cells were scraped into 1 mL of pre-chilled 60% (v/v) methanol containing 10 mM EDTA and extracted in methanol for 24 h at −20° C. The extracted samples were then centrifuged at 10,000×g for 15 min to remove cell debris. The supernatant was transferred to new tubes and evaporated in a speed vacuum at room temperature. The dried pellets of cell extracts were dissolved in H2O. Before HPLC analysis, cell extract samples were spiked with unlabeled reference standards 4AU and 4AU-mono-, di- and triphosphate derivatives.
The phosphorylation derivatives of 4AU were separated by ion exchange HPLC with a Whatman Partisil 10 SAX (4.6×250 mm) column coupled to a radiometric detector (β-RAM, IN/US Systems, Inc.). The mobile phase gradient changed linearly from 99% buffer A (H2O) and 1% buffer B (0.5 M KH2PO4+0.8 M KCl) to 100% buffer B between 4 and 16 minutes. 100% buffer B ran from 16 minutes to 26 minutes and changed back to 100% A in 1 minute. Buffer A ran until 32 minutes. […]

HCV [6] = conditions: cited from earlier work

NC(=O)c1ncn([C@@H]2O[C@H](CO)[C@@H](O)[C@H]2O)n1 [ribavirin, 1-((2R,3R,4S,5R)-3,4-Dihydroxy-5-hydroxymethyl-tetrahydro-furan-2-yl)-1H-[1,2,4]triazole-3-carboxylic acid amide]
effect on serum levels of HCV-RNA (HCV [1]): does not lower serum levels of HCV-RNA
patients with serum amino transferase levels reduced to normal (HCV [1]): 40%

[N-]=[N+]=N[C@]1(COP(=O)(O)OP(=O)(O)OP(=O)(O)O)O[C@@H](n2ccc(N)nc2=O)[C@H](O)[C@@H]1O [4′-AC-triphosphate, 4′-azido-cytidine triphosphate]
IC50 [2]: 29 ± 0.13 µM

[N-]=[N+]=N[C@]1(CO)O[C@@H](n2ccc(=O)[nH]c2=O)[C@H](O)[C@@H]1O [4′-AU, 4′-azido-uridine]
phosphorylation in Huh7 cells used in the replicon assay [3]: lack of phosphorylation
activity in the replicon assay [4]: inactive
efficiency of phosphorylation relative to 4′-AC ([5]; 4′-AU vs 4′-AC, human hepatocytes): approximately 10 fold
phosphorylation in primary human hepatocytes ([5]; primary human hepatocytes): phosphorylation does occur efficiently

[N-]=[N+]=N[C@]1(COP(=O)(O)OP(=O)(O)OP(=O)(O)O)O[C@@H](n2ccc(=O)[nH]c2=O)[C@H](O)[C@@H]1O [4′-AU triphosphate, 4-azidouridine triphosphate]
IC50 [2]: 0.46 ± 0.088 µM

CC(=O)OC(O)[C@@]1(N=[N+]=[N-])O[C@@H](n2ccc(=O)[nH]c2=O)[C@@](O)(OC(C)=O)[C@@]1(O)OC(C)=O (some centres unmarked)
melting point: 158 °C

[N-]=[N+]=N[C@]1(CO)O[C@@H](n2ccc(N)nc2=O)[C@H](O)[C@@H]1O [4′-AC, 4′-azido-cytidine]
inhibition of viral replication (HCV [6]): potent inhibitor of viral replication

CCC(=O)O[C@H]1[C@H](n2ccc(=O)[nH]c2=O)O[C@@](CO)(N=[N+]=[N-])[C@H]1OC(=O)CC [I-1, Propionic acid (2R,3R,4S,5R)-5-azido-2-(2,4-dioxo-3,4-dihydro-2H-pyrimidin-1-yl)-5-hydroxymethyl-4-propionyloxy-tetrahydro-furan-3-yl ester]
melting point: 118 to 120 °C
